Values joined by “and” are separate entries in the source; they are usually repeats but may differ in a detail not shown here. Equal values may be shown once.
System: carrageenan-induced mechanical hyperalgesia in rats
Experiment: Carrageenan-induced mechanical hyperalgesia, paw pressure test, MIN-117 1-10 mg/kg (Example 4)
Format: in vivo, male Sprague-Dawley rats
Details: Carrageenan 2%; for Nociceptive threshold, control paw (mean ± s.e.m.): T0 (3 h after carrageenan, before dosing); for paw withdrawal threshold, control paw, Mean: n = 10
Experimental: In this model, inflammation is induced by intraplantar injection of carrageenan (2%) into the right hindpaw of the rat. Three hours later, reaction thresholds are measured using the paw pressure test. Pressure is gradually applied to both hind paws (inflamed and control) of the rat, and reaction thresholds are determined as the pressure (g) required to elicit paw withdrawal or vocalization. Morphine (3 mg/kg, s.c.), used as positive control.
The experiments in this study used fifty (50) male Sprague-Dawley rats (SPF status, Janvier, France), each weighing 183-244 g during the experimental phase. The rats were housed in a temperature (20-24° C.) and relative humidity (45%-65%) controlled room and acclimated to an artificial day/night cycle of 12 hours light (6.30 a.m. to 6.30 p.m.)/12 hours darkness. Rats had free access to sterilized tap water and were fed ad libitum with pelleted complete diet (reference A04, S.A.F.E.). Animals were housed 4 per cage (cages Type E) and were acclimated for a period of at least 5 days before any testing. Each rat was identified by tail markings. Based on the SPF status of the animal facilities, there is no reason to expect that contaminants were present in the food, water or bedding, at levels capable of interfering with the results of the tests.
Static mechanical hyperalgesia was assessed using the Paw Pressure test or Randall & Selitto test (Randall, L. O. and Selitto, J. J., A method for measurement of analgesic activity on inflamed tissue, Arch Int Pharmacodyn, 1957(111): 409-419). This test requires the application of an increasing pressure on the hind paws between a flat surface and a blunt pointer. This test is usually used with animals with one hind paw inflamed by an injection or injured by ligation, and one normal hind paw, to evaluate drugs for analgesic action. The apparatus exerts a steadily increasing force and reaction threshold is determined as the pressure (g) required to elicit paw withdrawal and/or vocalization. In the experiment, animals were gently handled by the experimenter and static mechanical hyperalgesia was assessed. Each reaction threshold measurement was done for both hind paws.
Five (5) experimental groups of 10 rats each were used. Each group was first injected with 100 μL of a 2% carrageenan suspension was injected into the plantar aspect of the right hindpaw. Three hours after carrageenan injection, nociceptive reaction thresholds (vocalization or paw withdrawal) were measured in order to select animals meeting the inclusion criteria: 20 g<paw withdrawal threshold<240 g (baseline). The 5 groups were then administered the following: • Group 1: vehicle (0.5% HPMC), i.p., solution (negative control); • Group 2: MIN-117 (1 mg/kg, i.p.) in 0.5% HPMC, suspension; • Group 3: MIN-117 (3 mg/kg, i.p.) in 0.5% HPMC, suspension; • Group 4: MIN-117 (10 mg/kg, i.p.) in 0.5% HPMC, suspension; and • Group 5: morphine (3 mg/kg, s.c.) in 0.9% NaCl, solution (positive control).
Thirty minutes after morphine injection, the antihyperalgesic effect of morphine was evaluated using the paw pressure test. For vehicle and MIN-117 administration, the antihyperalgesic effect was evaluated after 120 min. using the paw pressure test.
Vehicle and MIN-117 were intraperitoneally administered at 10 mL/kg. Morphine was subcutaneously administered at 5 mL/kg. Dosing and testing were performed in a random order by a blinded experimenter except for the morphine-treated group. Doses were expressed in terms of free active substance.
Results were expressed as: • The paw withdrawal threshold (mean±s.e.m.) in grams of contact pressure for each group, calculated from individual paw withdrawal thresholds • The percentage of variation of the paw withdrawal threshold calculated from the mean value of the vehicle-treated group • The percentage of activity of activity of the compound on carrageenan-induced mechanical hyperalgesia, calculated as follows: […]

[1] = 1 mg/kg i.p., T0 (before dosing)
[2] = 3 mg/kg i.p., T0 (before dosing)
[3] = 10 mg/kg i.p., T0 (before dosing)
[4] = MIN-117 1 mg/kg i.p. group, Baseline (before dosing)
[5] = MIN-117 1 mg/kg i.p., 120 min after treatment, hydrochloride, 1 mg/kg
[6] = MIN-117 3 mg/kg i.p. group, Baseline (before dosing)
[7] = MIN-117 3 mg/kg i.p., 120 min after treatment, hydrochloride, 3 mg/kg
[8] = MIN-117 10 mg/kg i.p. group, Baseline (before dosing)
[9] = MIN-117 10 mg/kg i.p., 120 min after treatment, hydrochloride, 10 mg/kg
[10] = 3 mg/kg s.c., T0 (before dosing)
[11] = 3 mg/kg s.c., T0 + 30 min, 3 mg/kg
[12] = 3 mg/kg s.c., T0 + 30 min, listed as morphine, 3 mg/kg
[13] = Morphine 3 mg/kg s.c. group, Baseline (before dosing)
[14] = Morphine 3 mg/kg s.c., 30 min after treatment

In the case of `Cc1nnc(-c2cc3c(OC[C@@H](O)CN4CCC(c5ccc(Cl)c(Cl)c5)CC4)cccc3o2)o1.Cl` [MIN-117, (2S)-1-(4-(3,4-dichlorophenyl)piperidin-1-yl)-3-((2-(5-methyl-1,3,4-oxadiazol-2-yl)benzofuran-4-yl)oxy)propan-2-ol hydrochloride], the “Effect on nociceptive threshold vs vehicle-treated group (in words)” value (from here on “Effect … vs vehicle-treated group (in words)”) (1 mg/kg i.p., 120 min. after treatment) is reported as “did not induce any significant increase”, the “Nociceptive threshold, control paw (mean ± s.e.m.)” value (shortened to “Nociceptive threshold, control paw”) (1 mg/kg i.p.) is reported as 402 ± 19.9 g and the “% variation vs control paw, injured paw” value [1] is reported as −50%. For the same compound, the “% variation vs vehicle-treated group, injured paw” value [1] was 1%, the “Nociceptive threshold, injured paw (mean ± s.e.m.)” value (shortened to “Nociceptive threshold, injured paw”) [1] was 202 ± 8.7 g and the “% variation vs control paw, injured paw” value (1 mg/kg i.p., T0 + 120 min) was −39%. For the same compound, the “% variation vs pre-drug threshold, injured paw” value (1 mg/kg i.p., T0 + 120 min) was 14%, the “% variation vs vehicle-treated group, injured paw” value (1 mg/kg i.p., T0 + 120 min) was 13% and the “Nociceptive threshold, injured paw” value (1 mg/kg i.p., T0 + 120 min) was 230 ± 9.5 g. For the same compound, the “Effect … vs vehicle-treated group (in words)” value (3 mg/kg i.p., 120 min. later) was “significant increase”, the “Nociceptive threshold, control paw” value (3 mg/kg i.p.) was 392 ± 18.4 g and the “% variation vs control paw, injured paw” value [2] was −47%. The “% variation vs vehicle-treated group, injured paw” value [2] was 4%, the “Nociceptive threshold, injured paw” value [2] was 208 ± 7.4 g and the “% variation vs control paw, injured paw” value (3 mg/kg i.p., T0 + 120 min) was −23%. For the same compound, the “% variation vs pre-drug threshold, injured paw” value (3 mg/kg i.p., T0 + 120 min) was 42%, the “% variation vs vehicle-treated group, injured paw” value (3 mg/kg i.p., T0 + 120 min) was 45% and the “Nociceptive threshold, injured paw” value (3 mg/kg i.p., T0 + 120 min, hydrochloride, 3 mg/kg) was 296 ± 20.8 g. The “Effect … vs vehicle-treated group (in words)” value (10 mg/kg i.p., 120 min. later) was “significant increase”, the “Nociceptive threshold, control paw” value (10 mg/kg i.p.) was 384 ± 10.2 g and the “% variation vs control paw, injured paw” value [3] was −47%. For the same compound, the “% variation vs vehicle-treated group, injured paw” value [3] was 2%, the “Nociceptive threshold, injured paw” value [3] was 204 ± 6.5 g and the “% variation vs control paw, injured paw” value (10 mg/kg i.p., T0 + 120 min) was −27%. For the same compound, the “% variation vs pre-drug threshold, injured paw” value (10 mg/kg i.p., T0 + 120 min) was 53%, the “% variation vs vehicle-treated group, injured paw” value (10 mg/kg i.p., T0 + 120 min) was 53% and the “Nociceptive threshold, injured paw” value (10 mg/kg i.p., T0 + 120 min, hydrochloride, 10 mg/kg) was 312 ± 22.7 g. For the same compound, the “% variation vs control paw, injured paw” value [4] was −50%, the “% variation vs vehicle treated group, injured paw” value [4] was 1% and the “paw withdrawal threshold, control paw, Mean” value (MIN-117 1 mg/kg i.p. group, Baseline (before dosing, 3 h after carrageenan)) was 402 g. For the same compound, the “% activity on carrageenan-induced mechanical hyperalgesia, injured paw” value (MIN-117 1 mg/kg i.p., 120 min) was 15%, the “% variation vs control paw, injured paw” value (MIN-117 1 mg/kg i.p., 120 min) was −39% and the “% variation vs pre-drug threshold, injured paw” value (MIN-117 1 mg/kg i.p., 120 min) was 14%. The “% variation vs vehicle treated group, injured paw” value (MIN-117 1 mg/kg i.p., 120 min) was 13%, the “paw withdrawal threshold, control paw, individual rats” value [5] was 400 g and 440 g and 340 g and 480 g and 360 g (4×) and 380 g and 320 g and the “paw withdrawal threshold, injured paw, individual rats” value (“paw withdrawal threshold, injured paw” for short) [5] was 260 g (4×) and 220 g (2×) and 240 g and 200 g (2×) and 180 g. The “paw withdrawal threshold, control paw, Mean” value (MIN-117 1 mg/kg i.p., 120 min after treatment) was 380 g, the “% variation vs control paw, injured paw” value [6] was −47% and the “% variation vs vehicle treated group, injured paw” value [6] was 4%. For the same compound, the “paw withdrawal threshold, control paw, Mean” value (MIN-117 3 mg/kg i.p. group, Baseline (before dosing, 3 h after carrageenan)) was 392 g, the “% activity on carrageenan-induced mechanical hyperalgesia, injured paw” value (MIN-117 3 mg/kg i.p., 120 min) was 55% and the “% variation vs control paw, injured paw” value (MIN-117 3 mg/kg i.p., 120 min) was −23%. The “% variation vs pre-drug threshold, injured paw” value (MIN-117 3 mg/kg i.p., 120 min) was 42%, the “% variation vs vehicle treated group, injured paw” value (MIN-117 3 mg/kg i.p., 120 min) was 45% and the “paw withdrawal threshold, control paw, individual rats” value [7] was 380 g and 360 g (5×) and 440 g and 500 g and 320 g and 420 g. For the same compound, the “paw withdrawal threshold, injured paw” value [7] was 360 g and 220 g and 420 g and 280 g (3×) and 340 g and 320 g and 260 g and 200 g, the “paw withdrawal threshold, control paw, Mean” value (MIN-117 3 mg/kg i.p., 120 min after treatment) was 368 g and the “% variation vs control paw, injured paw” value [8] was −47%. For the same compound, the “% variation vs vehicle treated group, injured paw” value [8] was 2%, the “paw withdrawal threshold, control paw, Mean” value (MIN-117 10 mg/kg i.p. group, Baseline (before dosing, 3 h after carrageenan)) was 384 g and the “% activity on carrageenan-induced mechanical hyperalgesia, injured paw” value (MIN-117 10 mg/kg i.p., 120 min) was 64%. The “% variation vs control paw, injured paw” value (MIN-117 10 mg/kg i.p., 120 min) was −27%, the “% variation vs pre-drug threshold, injured paw” value (MIN-117 10 mg/kg i.p., 120 min) was 53% and the “% variation vs vehicle treated group, injured paw” value (MIN-117 10 mg/kg i.p., 120 min) was 53%. For the same compound, the “paw withdrawal threshold, control paw, individual rats” value [9] was 440 g (3×) and 480 g and 520 g and 400 g and 340 g and 320 g and 360 g and 540 g, the “paw withdrawal threshold, injured paw” value [9] was 320 g (2×) and 280 g (2×) and 340 g and 360 g and 480 g and 260 g and 240 g (2×) and the “paw withdrawal threshold, control paw, Mean” value (MIN-117 10 mg/kg i.p., 120 min after treatment) was 428 g.

In the case of `CN1CC[C@]23c4c5ccc(O)c4O[C@H]2[C@@H](O)C=C[C@H]3[C@H]1C5` [Morphine, reference compound], the “Effect on nociceptive threshold vs baseline pre-treatment (in words)” value (3 mg/kg s.c., 30 min. after the injection) is reported as “marked and significant increase”, the “Nociceptive threshold, control paw” value (3 mg/kg s.c.) is reported as 376 ± 14.5 g and the “% variation vs control paw, injured paw” value [10] is reported as −47%. For the same compound, the “% variation vs vehicle-treated group, injured paw” value [10] was 0%, the “Nociceptive threshold, injured paw” value (3 mg/kg s.c., T0 (before dosing), 3 mg/kg) was 200 ± 6.7 g and the “Nociceptive threshold, injured paw” value (3 mg/kg s.c., T0 (before dosing), listed as morphine, 3 mg/kg) was 200 ± 6.7 g. The “% variation vs control paw, injured paw” value (3 mg/kg s.c., T0 + 30 min) was −17%, the “% variation vs pre-drug threshold, injured paw” value (3 mg/kg s.c., T0 + 30 min) was 162% and the “% activity, injured paw” value [11] was 190%. For the same compound, the “Nociceptive threshold, injured paw” value [11] was 524 ± 35.6 g, the “% activity, injured paw” value [12] was “+190%” and the “Nociceptive threshold, injured paw” value [12] was 524 ± 35.6 g. The “% variation vs control paw, injured paw” value [13] was −47%, the “% variation vs vehicle treated group, injured paw” value [13] was 0% and the “paw withdrawal threshold, control paw, Mean” value (Morphine 3 mg/kg s.c. group, Baseline (before dosing, 3 h after carrageenan)) was 376 g. The “% activity on carrageenan-induced mechanical hyperalgesia, injured paw” value (Morphine 3 mg/kg s.c., 30 min) was 190%, the “% variation vs control paw, injured paw” value (Morphine 3 mg/kg s.c., 30 min) was −17% and the “% variation vs pre-drug threshold, injured paw” value (Morphine 3 mg/kg s.c., 30 min) was 162%. The “paw withdrawal threshold, control paw, individual rats” value [14] was 680 g (4×) and 640 g (2×) and 600 g and 620 g and 560 g and 520 g, the “paw withdrawal threshold, injured paw” value [14] was 680 g and 600 g (2×) and 500 g and 640 g and 320 g and 400 g and 540 g and 440 g and 520 g and the “paw withdrawal threshold, control paw, Mean” value [14] was 630 g.
